The supplement of paper PMC10307832

What was measured:
Test in all cases: relative viability (nuclei count vs DMSO), 5 days (fraction); higher = more cells survive
MK-8033 + Pemetrexed = compound: Cn1cc(-c2cnc3ccc4ccc(CS(=O)(=O)NCc5ccccn5)cc4c(=O)c3c2)cn1 [MK-8033] + Nc1nc2[nH]cc(CCc3ccc(C(=O)N[C@@H](CCC(=O)O)C(=O)O)cc3)c2c(=O)[nH]1 [Pemetrexed] (partner 0.2 µM)
In short: (§1)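 Lung cancer cell lines were seeded in 1536-well plates and dosed by pin tool the next day, with either a single drug or a fixed anchor-drug dose combined with five library-drug doses (not always all listed) spaced in √10 steps. Five days later, one step fixed the cells and stained their nuclei (final 0.05% Triton X-100, 1% formaldehyde, 1 ug/ml Hoechst), and nuclei were counted on 4× images. Relative viability is the nuclei count in treated wells divided by the count in vehicle wells, and each value is the median of duplicate plates.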

Irinotecan + Palbociclib = compound: CCc1c2c(nc3ccc(OC(=O)N4CCC(N5CCCCC5)CC4)cc13)-c1cc3c(c(=O)n1C2)COC(=O)[C@]3(O)CC [Irinotecan] + CC(=O)c1c(C)c2cnc(Nc3ccc(N4CCNCC4)cn3)nc2n(C2CCCC2)c1=O [Palbociclib] (partner 0.5 µM)
In short: as §1

RU-SKI 43 + Linsitinib = compound: CC[C@@H](C)CNCC(=O)N1CCC2=C([C@@H]1COC3=CC=CC(=C3)C)C=CS2 [RU-SKI 43] + C[C@]1(O)C[C@@H](c2nc(-c3ccc4ccc(-c5ccccc5)nc4c3)c3c(N)nccn32)C1 [Linsitinib] (partner 1 µM)
In short: as §1

RU-SKI 43 + Bortezomib = compound: CC[C@@H](C)CNCC(=O)N1CCC2=C([C@@H]1COC3=CC=CC(=C3)C)C=CS2 [RU-SKI 43] + CC(C)C[C@H](NC(=O)[C@H](Cc1ccccc1)NC(=O)c1cnccn1)B(O)O [Bortezomib] (partner 0.002 µM)
In short: as §1

Cell Line | relative viability (MK-8033 + Pemetrexed; first compound 0.02 µM) | relative viability (MK-8033 + Pemetrexed; first compound 0.06325 µM) | relative viability (MK-8033 + Pemetrexed; first compound 0.2 µM) | relative viability (MK-8033 + Pemetrexed; first compound 0.6325 µM) | relative viability (MK-8033 + Pemetrexed; first compound 2 µM) | relative viability (Irinotecan + Palbociclib; first compound 2 µM) | relative viability (Irinotecan + Palbociclib; first compound 6.325 µM) | relative viability (Irinotecan + Palbociclib; first compound 20 µM) | relative viability (RU-SKI 43 + Linsitinib; first compound 0.1 µM) | relative viability (RU-SKI 43 + Linsitinib; first compound 0.3162 µM) | relative viability (RU-SKI 43 + Linsitinib; first compound 1 µM) | relative viability (RU-SKI 43 + Linsitinib; first compound 3.162 µM) | relative viability (RU-SKI 43 + Linsitinib; first compound 10 µM) | relative viability (RU-SKI 43 + Bortezomib; first compound 0.1 µM) | relative viability (RU-SKI 43 + Bortezomib; first compound 0.3162 µM) | relative viability (RU-SKI 43 + Bortezomib; first compound 1 µM) | relative viability (RU-SKI 43 + Bortezomib; first compound 3.162 µM) | relative viability (RU-SKI 43 + Bortezomib; first compound 10 µM) | relative viability (Irinotecan + Palbociclib; first compound 0.6325 µM)
NCI-H1993 | 0.537 | 0.58 | 0.498 | 0.575 | 0.46 | 0.513 | 0.521 | 1.01 | 0.745 | 0.732 | 0.661 | 0.721 | 0.762 | 1.04 | 1.01 | 1.15 | 1.1 | 0.756 | –
HCC-366 | 0.151 | 0.222 | 0.141 | 0.196 | 0.35 | 0.18 | 0.0611 | 0.0667 | 0.604 | 1.83 | 0.694 | 0.608 | 0.592 | 1.11 | 1.39 | 1.24 | 1.24 | 1.07 | 0.228
NCI-H322M | 0.63 | 0.59 | 0.56 | 0.599 | 0.621 | 0.502 | 0.458 | 0.336 | 0.832 | 0.915 | 0.967 | 1.02 | 0.893 | 1.2 | 1.3 | 1.3 | 1.24 | 1.28 | 0.527
